Results reported in patent publication US12054463B2, “Radiolabeled microtubule imaging compounds and uses thereof” (The Trustees of Columbia University in the City of New York, priority 2017, dated 2024).

Key:
VMAT = experiment: Affinity to brain targets (panel); assay type: binding; conditions: VMAT (VMAT 1,2): vesicular monoamine transporter
NK = experiment: Affinity to brain targets (panel); assay type: binding; conditions: NK: neurokinin
α1A-1C = experiment: Affinity to brain targets (panel); assay type: binding
NMDA = experiment: Affinity to brain targets (panel); assay type: binding
5-HT1A-1E = experiment: Affinity to brain targets (panel); assay type: binding
5-HT3-7 = experiment: Affinity to brain targets (panel); assay type: binding
Microtubule = conditions: MT; reference 12; cited from earlier work
Sigma2 = Sigma2 (Homo sapiens, UniProt Q5BJF2); experiment: Affinity to brain targets (panel); assay type: binding; conditions: Sigma2 (Sigma 2)
D1-D5 = experiment: Affinity to brain targets (panel); assay type: binding
DAT = DAT (Homo sapiens, UniProt Q01959); experiment: Affinity to brain targets (panel); assay type: binding; conditions: DAT: dopamine transporters
Smoothened = Smoothened (Homo sapiens, UniProt Q99835); experiment: Affinity to brain targets (panel); assay type: binding
Adenosine = experiment: Affinity to brain targets (panel); assay type: binding; conditions: Adenosine (A)
panel of kinases = conditions: cited from earlier work
NET = NET (Homo sapiens, UniProt P23975); experiment: Affinity to brain targets (panel); assay type: binding; conditions: NET: norepinephrine transporter
Ca++ channel = experiment: Affinity to brain targets (panel); assay type: binding
H2 = H2 (Homo sapiens, UniProt P25021); experiment: Affinity to brain targets (panel); assay type: binding; conditions: H2: histamine
NT = experiment: Affinity to brain targets (panel); assay type: binding; conditions: NT: neurotrophin
β1-3 = experiment: Affinity to brain targets (panel); assay type: binding
H1 = H1 (Homo sapiens, UniProt P35367); experiment: Affinity to brain targets (panel); assay type: binding; conditions: H1: histamine
MT = conditions: listed under MT; reference 12; cited from earlier work
α2A-2C = experiment: Affinity to brain targets (panel); assay type: binding
5-HT2A-2C = experiment: Affinity to brain targets (panel); assay type: binding
BZP = experiment: Affinity to brain targets (panel); assay type: binding; conditions: BZP: benzodiazepine
NOP = NOP (Homo sapiens, UniProt P41146); experiment: Affinity to brain targets (panel); assay type: binding
DOR = DOR (Homo sapiens, UniProt P41143); experiment: Affinity to brain targets (panel); assay type: binding; conditions: DOR: delta opioid receptors
GABA = experiment: Affinity to brain targets (panel); assay type: binding
KA = experiment: Affinity to brain targets (panel); assay type: binding; conditions: KA (KAR): Kainate
Oxytocin = target: T1, Oxytocin (Homo sapiens, UniProt P30559); experiment: Affinity to brain targets (panel); assay type: binding
T1 sequence (P30559 1-389): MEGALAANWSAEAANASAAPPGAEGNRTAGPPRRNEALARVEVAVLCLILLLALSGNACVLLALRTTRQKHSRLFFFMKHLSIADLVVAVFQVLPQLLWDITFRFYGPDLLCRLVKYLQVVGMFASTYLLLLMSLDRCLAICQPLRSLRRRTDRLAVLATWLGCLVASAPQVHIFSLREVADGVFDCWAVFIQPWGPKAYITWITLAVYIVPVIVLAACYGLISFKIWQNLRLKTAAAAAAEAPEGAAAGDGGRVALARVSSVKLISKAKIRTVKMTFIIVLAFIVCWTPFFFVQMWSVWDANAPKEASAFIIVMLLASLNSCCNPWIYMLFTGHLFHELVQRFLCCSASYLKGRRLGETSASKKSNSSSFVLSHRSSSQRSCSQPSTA

PBR = PBR (Homo sapiens, UniProt P30536); experiment: Affinity to brain targets (panel); assay type: binding
PKC = experiment: Affinity to brain targets (panel); assay type: binding; conditions: PKC: Protein kinase C
Sigma1 = Sigma1 (Homo sapiens, UniProt Q99720); experiment: Affinity to brain targets (panel); assay type: binding
KOR = KOR (Homo sapiens, UniProt P41145); experiment: Affinity to brain targets (panel); assay type: binding; conditions: KOR: kappa opioid receptors
MOR = MOR (Homo sapiens, UniProt P35372); experiment: Affinity to brain targets (panel); assay type: binding; conditions: MOR: mu opioid receptor
EP = experiment: Affinity to brain targets (panel); assay type: binding; conditions: EP: prostanoid receptors
CB1, CB2 = experiment: Affinity to brain targets (panel); assay type: binding
Na+ Channel = experiment: Affinity to brain targets (panel); assay type: binding
AMPA = experiment: Affinity to brain targets (panel); assay type: binding
HERG = HERG (Homo sapiens, UniProt Q12809); experiment: Affinity to brain targets (panel); assay type: binding; conditions: HERG: human ether-a-go-go
H3, H4 = experiment: Affinity to brain targets (panel); assay type: binding; conditions: H3, H4: histamine
MDR1 = MDR1 (Homo sapiens, UniProt P08183); experiment: Affinity to brain targets (panel); assay type: binding; conditions: MDR1: multidrug resistance
tumor xenografts = conditions: references 12-14; cited from earlier work
SERT = SERT (Homo sapiens, UniProt P31645); experiment: Affinity to brain targets (panel); assay type: binding; conditions: SERT: serotonin transporter
M = experiment: Affinity to brain targets (panel); assay type: binding; conditions: M: muscarinic
[1] = references 12-14; cited from earlier work
mGluR = experiment: Affinity to brain targets (panel); assay type: binding; conditions: mGluR (mGluRs): metabotropic glutamate receptors
I = experiment: Affinity to brain targets (panel); assay type: binding

Chain of Smoothened (Q99835 28-787): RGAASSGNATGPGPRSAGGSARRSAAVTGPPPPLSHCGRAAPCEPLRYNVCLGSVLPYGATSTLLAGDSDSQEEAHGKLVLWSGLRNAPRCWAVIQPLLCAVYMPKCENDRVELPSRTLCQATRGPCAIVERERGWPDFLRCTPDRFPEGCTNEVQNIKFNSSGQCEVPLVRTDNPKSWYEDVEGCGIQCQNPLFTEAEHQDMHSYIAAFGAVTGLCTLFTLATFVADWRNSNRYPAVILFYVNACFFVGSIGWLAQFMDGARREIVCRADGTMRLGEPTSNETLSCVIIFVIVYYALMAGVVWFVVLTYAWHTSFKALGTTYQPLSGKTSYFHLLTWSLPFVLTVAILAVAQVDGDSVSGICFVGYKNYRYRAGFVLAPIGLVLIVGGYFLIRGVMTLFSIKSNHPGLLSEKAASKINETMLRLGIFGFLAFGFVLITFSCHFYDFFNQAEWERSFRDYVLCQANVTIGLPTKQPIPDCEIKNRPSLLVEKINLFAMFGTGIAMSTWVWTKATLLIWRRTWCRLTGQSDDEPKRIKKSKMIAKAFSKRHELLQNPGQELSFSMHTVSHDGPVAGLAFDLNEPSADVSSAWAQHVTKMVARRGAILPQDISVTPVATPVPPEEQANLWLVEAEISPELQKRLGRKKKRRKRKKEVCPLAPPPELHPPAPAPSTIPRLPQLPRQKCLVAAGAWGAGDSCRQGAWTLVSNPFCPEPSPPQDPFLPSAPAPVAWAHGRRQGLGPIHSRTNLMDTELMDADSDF
Chain of Sigma2 (Q5BJF2 whole entry): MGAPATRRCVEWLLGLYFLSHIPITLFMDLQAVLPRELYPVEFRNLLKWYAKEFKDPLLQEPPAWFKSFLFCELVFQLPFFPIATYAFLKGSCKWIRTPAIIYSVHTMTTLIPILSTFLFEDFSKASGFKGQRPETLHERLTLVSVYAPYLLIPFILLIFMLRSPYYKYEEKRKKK
Chain of DAT (Q01959 whole entry, species assumed): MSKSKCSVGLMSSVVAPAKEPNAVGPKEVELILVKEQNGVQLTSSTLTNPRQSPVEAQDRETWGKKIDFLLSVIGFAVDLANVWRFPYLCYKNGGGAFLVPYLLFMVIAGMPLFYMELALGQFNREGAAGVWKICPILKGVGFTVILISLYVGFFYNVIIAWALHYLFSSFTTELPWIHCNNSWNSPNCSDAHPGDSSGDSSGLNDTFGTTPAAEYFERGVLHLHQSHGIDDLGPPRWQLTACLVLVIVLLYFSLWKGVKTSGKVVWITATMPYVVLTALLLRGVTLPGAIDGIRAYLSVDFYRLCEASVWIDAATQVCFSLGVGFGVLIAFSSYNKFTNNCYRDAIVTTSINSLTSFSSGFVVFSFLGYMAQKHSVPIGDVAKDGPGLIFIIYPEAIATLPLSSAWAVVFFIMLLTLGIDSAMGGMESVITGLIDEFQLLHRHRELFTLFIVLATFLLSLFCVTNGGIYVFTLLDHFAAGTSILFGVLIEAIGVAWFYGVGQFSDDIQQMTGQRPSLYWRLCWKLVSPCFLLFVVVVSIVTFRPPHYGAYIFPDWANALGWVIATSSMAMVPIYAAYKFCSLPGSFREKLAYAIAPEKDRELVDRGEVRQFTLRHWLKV
Chain of PBR (P30536 whole entry, species assumed): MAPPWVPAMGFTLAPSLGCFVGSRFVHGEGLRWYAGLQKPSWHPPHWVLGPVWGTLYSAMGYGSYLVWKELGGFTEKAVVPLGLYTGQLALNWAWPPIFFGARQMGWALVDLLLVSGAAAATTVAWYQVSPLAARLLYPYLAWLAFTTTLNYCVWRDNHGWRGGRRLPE
Chain of NET (P23975 whole entry): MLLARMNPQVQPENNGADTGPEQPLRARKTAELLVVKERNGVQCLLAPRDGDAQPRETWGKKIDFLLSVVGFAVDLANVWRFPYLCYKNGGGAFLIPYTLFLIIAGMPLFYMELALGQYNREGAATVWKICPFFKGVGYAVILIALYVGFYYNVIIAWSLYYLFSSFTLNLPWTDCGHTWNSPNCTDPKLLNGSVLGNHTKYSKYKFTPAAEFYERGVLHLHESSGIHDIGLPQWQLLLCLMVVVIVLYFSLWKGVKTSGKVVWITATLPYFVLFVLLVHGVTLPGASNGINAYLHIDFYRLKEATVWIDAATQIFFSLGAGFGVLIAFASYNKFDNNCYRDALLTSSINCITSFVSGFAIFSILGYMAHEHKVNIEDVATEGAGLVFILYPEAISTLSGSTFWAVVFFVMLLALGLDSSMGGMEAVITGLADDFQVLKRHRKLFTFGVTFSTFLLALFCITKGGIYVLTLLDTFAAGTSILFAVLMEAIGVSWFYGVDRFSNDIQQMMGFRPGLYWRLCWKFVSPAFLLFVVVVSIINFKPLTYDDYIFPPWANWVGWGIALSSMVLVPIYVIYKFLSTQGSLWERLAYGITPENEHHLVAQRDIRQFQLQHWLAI
Chain of SERT (P31645 whole entry, species assumed): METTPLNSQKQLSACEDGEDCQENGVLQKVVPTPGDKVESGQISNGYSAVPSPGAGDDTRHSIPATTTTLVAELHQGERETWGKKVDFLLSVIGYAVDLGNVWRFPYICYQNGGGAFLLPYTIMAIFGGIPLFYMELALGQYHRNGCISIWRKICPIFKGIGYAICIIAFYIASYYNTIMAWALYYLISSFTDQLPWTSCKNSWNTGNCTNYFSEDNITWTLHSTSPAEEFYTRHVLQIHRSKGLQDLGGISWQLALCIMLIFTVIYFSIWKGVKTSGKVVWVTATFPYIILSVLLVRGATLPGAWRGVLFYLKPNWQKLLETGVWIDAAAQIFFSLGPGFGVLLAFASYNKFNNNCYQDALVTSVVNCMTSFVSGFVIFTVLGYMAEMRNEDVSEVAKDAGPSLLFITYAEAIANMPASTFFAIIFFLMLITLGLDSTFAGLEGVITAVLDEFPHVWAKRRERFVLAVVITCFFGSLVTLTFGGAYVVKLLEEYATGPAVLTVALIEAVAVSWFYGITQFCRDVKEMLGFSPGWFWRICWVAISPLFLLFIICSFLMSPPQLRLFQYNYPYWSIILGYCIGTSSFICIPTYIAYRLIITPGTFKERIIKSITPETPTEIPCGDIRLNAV
Chain of Sigma1 (Q99720 whole entry): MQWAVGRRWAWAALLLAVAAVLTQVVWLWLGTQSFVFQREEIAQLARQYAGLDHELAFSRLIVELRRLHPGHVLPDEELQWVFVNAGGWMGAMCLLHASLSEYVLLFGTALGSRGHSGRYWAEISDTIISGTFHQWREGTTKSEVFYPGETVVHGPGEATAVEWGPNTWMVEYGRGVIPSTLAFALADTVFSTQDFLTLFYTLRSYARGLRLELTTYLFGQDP
Chain of DOR (P41143 whole entry): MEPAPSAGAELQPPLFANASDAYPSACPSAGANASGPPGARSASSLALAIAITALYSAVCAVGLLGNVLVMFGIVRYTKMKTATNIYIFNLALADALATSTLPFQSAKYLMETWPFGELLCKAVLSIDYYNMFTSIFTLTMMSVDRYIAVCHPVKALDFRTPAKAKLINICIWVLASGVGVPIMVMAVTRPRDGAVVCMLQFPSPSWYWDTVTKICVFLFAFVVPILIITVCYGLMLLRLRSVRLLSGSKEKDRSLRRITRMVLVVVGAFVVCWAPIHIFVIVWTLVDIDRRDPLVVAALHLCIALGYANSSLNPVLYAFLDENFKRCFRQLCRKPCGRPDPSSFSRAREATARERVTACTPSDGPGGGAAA
Chain of H1 (P35367 whole entry): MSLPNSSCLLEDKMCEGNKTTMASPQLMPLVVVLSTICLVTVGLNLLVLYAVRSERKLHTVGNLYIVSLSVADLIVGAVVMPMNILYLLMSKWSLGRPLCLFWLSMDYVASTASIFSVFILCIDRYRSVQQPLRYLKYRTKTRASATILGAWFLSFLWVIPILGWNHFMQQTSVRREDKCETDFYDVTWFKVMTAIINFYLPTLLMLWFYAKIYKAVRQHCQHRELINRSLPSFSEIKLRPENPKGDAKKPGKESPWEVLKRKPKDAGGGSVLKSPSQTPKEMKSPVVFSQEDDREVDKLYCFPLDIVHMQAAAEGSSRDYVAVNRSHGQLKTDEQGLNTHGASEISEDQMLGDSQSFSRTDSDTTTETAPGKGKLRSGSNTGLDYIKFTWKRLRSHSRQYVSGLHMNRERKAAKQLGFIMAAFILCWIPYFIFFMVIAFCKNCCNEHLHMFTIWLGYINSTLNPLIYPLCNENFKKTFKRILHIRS
Chain of NOP (P41146 whole entry): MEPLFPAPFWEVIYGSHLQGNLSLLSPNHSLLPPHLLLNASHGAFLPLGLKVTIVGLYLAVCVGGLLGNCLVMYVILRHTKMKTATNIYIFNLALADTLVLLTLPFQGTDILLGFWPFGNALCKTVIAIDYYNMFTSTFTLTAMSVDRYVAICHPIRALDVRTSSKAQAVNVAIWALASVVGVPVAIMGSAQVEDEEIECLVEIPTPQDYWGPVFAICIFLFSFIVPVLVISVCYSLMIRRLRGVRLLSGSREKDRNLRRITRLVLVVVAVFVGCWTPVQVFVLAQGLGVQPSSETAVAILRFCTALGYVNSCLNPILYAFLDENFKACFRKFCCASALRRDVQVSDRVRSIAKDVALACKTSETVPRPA
Chain of MOR (P35372 whole entry): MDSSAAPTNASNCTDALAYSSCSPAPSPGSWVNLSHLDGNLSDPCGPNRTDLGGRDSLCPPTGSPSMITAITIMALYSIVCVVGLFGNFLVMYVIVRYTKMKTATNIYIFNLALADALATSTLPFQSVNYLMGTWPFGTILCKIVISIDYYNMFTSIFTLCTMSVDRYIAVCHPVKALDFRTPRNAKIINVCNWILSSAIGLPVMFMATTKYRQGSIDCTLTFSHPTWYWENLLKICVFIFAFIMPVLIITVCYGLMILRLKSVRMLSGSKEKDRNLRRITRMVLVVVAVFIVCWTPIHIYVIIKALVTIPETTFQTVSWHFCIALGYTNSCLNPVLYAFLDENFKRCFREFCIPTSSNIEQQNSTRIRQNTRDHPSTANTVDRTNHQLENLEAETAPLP

COc1ccc(N(C)c2ncnc3occ(C)c23)cc1 [HD-800, reference compound]
Ki (VMAT): > 10 µM | Ki (NK): > 10 µM | Ki (α1A-1C): > 10 µM | Ki (NMDA): > 10 µM | Ki (5-HT1A-1E): > 10 µM | Ki (5-HT3-7): > 10 µM | IC50 (Microtubule): 0.0032 µM | Ki (Sigma2): > 10 µM | Ki (D1-D5): > 10 µM | Ki (DAT): > 10 µM | Ki (Smoothened): > 10 µM | Ki (Adenosine): > 10 µM | binding to a panel / variety of kinases (panel of kinases): selective | Ki (NET): > 10 µM | Ki (Ca++ channel): > 10 µM | Ki (H2): > 10 µM | Ki (NT): > 10 µM | Ki (β1-3): > 10 µM | Ki (H1): > 10 µM | GI50 (MT): < 0.01 µM | Ki (α2A-2C): > 10 µM | Ki (5-HT2A-2C): > 10 µM | Ki (BZP): > 10 µM | Ki (NOP): > 10 µM | Ki (DOR): > 10 µM | Ki (GABA): > 10 µM | Ki (KA): > 10 µM | Ki (Oxytocin): > 10 µM | Ki (PBR): 2.36 µM | Ki (PKC): > 10 µM | Ki (Sigma1): > 10 µM | Ki (KOR): > 10 µM | Ki (MOR): > 10 µM | Ki (EP): > 10 µM | Ki (CB1, CB2): > 10 µM | Ki (Na+ Channel): > 10 µM | Ki (AMPA): > 10 µM | Ki (HERG): > 10 µM | Ki (H3, H4): > 10 µM | Ki (MDR1): > 10 µM | tumor growth inhibition (TGI) compared with paclitaxel (tumor xenografts): higher tumor growth inhibition (TGI) than paclitaxel | Ki (SERT): > 10 µM | Ki (M): > 10 µM | BBB penetration [1]: BBB penetrant | Ki (mGluR): > 10 µM | Ki (I): > 10 µM
